Publication PMC10534582, “A Pharmacokinetic Study of Sixteen Major Bioactive Components of Jinshui-Huanxian Granules in Pulmonary Fibrosis Model and Control Rats Using Orbitrap Fusion Mass Spectrometry” (Molecules, 2023)
Like-named read-outs stand apart in the source and are kept apart here. One block for each compound: values may come before it.

Key:
[1] = Pharmacokinetics of JHG components in pulmonary fibrosis (PF) model rats after intragastric administration of JHGs (plasma, Orbitrap Fusion MS); format: in vivo, Sprague Dawley (SD) rats; details: for pharmacokinetic process (versus dosage): PF model rats, low, medium, high doses of JHGs
Experimental: (§1) Healthy male Sprague Dawley (SD) rats of SPF grade (240 ± 20 g) were purchased from Sipeifu (Beijing, China) Biotechnology Co., Ltd. (Beijing, China), Certificate of Conformity No.: SCYK (Beijing, China) 2019-0015, Animal Quality Certificate No.: 110324220102348616. They were housed in the Animal Center of Henan University of Traditional Chinese Medicine, which passed the ethical audit, ethics number: DWLL202208003, breeding Co. 24 °C, relative humidity 50 ± 2%. The animals fasted for 12 h before the experiment and drank water freely. All feeding and experimental studies on experimental animals were in accordance with the regulations on the Management of Experimental Animals in Henan Province.
The PF model in rats was replicated by reference to the conclusion tracheal intubation method in the literature. After the rats were anesthetized, bleomycin (BLM) (5 mg/kg) was used as an induction agent and followed the tracheal intubation method. BLM solution was aspirated with a 1 mL syringe and injected into the indwelling syringe. A total of 0.3 mL of air was rapidly pushed into the syringe, the rats were immediately stroked upright so that the BLM solution was evenly distributed in both lungs. BLM was given on day 0 for modeling, then gavage was taken after day 28, with fasting without water for 12 h before sampling. The histopathological examination was performed to verify the construction of the PF model. The rats were anesthetized by the abdominal cavity, then the lung tissues were violently shocked by opening the chest, and the right lower lobe of the lung was taken and fixed in 4% formaldehyde solution, then dehydrated by sucrose gradient, paraffin-embedded, and sectioned. H&E and Masson staining were performed to observe the degree of alveolitis of lung tissue and the degree of pulmonary fibrosis, respectively. The inflammation and fibrosis of lung tissues was observed under the light microscope.
(§2) Twenty-four healthy male SD rats or PF model rats, weighing 240 ± 20 g, fasted for 12 h before the experiment and drank water freely. Both kinds of rats were randomly divided into four groups. Blank group: equal dose of water by intragastric, low dose; administration group: rats were given the equivalent human dose of JHGs by intragastric, i.e., 10.8 g of raw drug/kg/d (5.70 g/kg/d); medium-dose administration group: 2 times the human equivalent dose of JHGs by intragastric, i.e., 21.6 g of raw drug/kg/d (11.41 g/kg/d); high-dose administration group: 4 times the human equivalent dose of JHG, i.e., 43.2 g of raw drug/kg/d (22.81 g/kg/d). Blood was collected from the tail vein before and 0.083, 0.25, 0.5, 0.75, 1, 1.5, 2, 3, 4, 6, 8, 12, 18, and 24 h after dosing, respectively. A total of 0.5 mL was placed in a heparin sodium centrifuge tube. Whole blood was left for 30 min and then centrifuged in a low-temperature freezing centrifuge (4 °C, 3000 r/min) for 15 min. The upper layer of plasma was collected and stored in a refrigerator at −80 °C.
(§3) We added 50 μL of internal standard solution and 800 μL of methanol, shook for 15 min, then centrifuged at 12,000 r/min for 10 min, took the supernatant, dried in a centrifuge concentrator, added 50 μL of the initial mobile phase to the residue, dissolved, centrifuged, then separated the upper layer of the solution used as the test solution. A total of 5 μL test solution was taken into the sample for analysis. For each compound with a certain dosage, the same procedure is repeated six times in parallel. The concentration in plasma was calculated by the internal standard method.
Accucore C18 (100 mm × 2.1 mm, 2.6 μm) column at 25 °C, the mobile phase was methanol (A)-0.1% formic acid aqueous solution (B). The gradient elution program was 0–4 min (65% B-40% B), 4–5 min (40% B-40% B), 5–6 min (40% B-28% B), and 6–7 min (28% B-19% B), 7–7.5 min (19% B-10% B), 7.5–11 min (10% B-0% B), the flow rate was 0.2 mL/min, and the injection volume was 5 μL. […]

[2] = Pharmacokinetics of JHG components in control rats after intragastric administration of JHGs (plasma, Orbitrap Fusion MS); format: in vivo, Sprague Dawley (SD) rats; details: for pharmacokinetic process (Cmax and AUCs versus dosage): low, medium, high doses of JHGs; for AUC(0-inf) / AUC(0-t) / half-life / MRT last / MRT inf / Tmax / Cmax: male, Sprague Dawley, rat, plasma, po; for MRT last: read-out: MRT(0-t); for MRT inf: read-out: MRT(0-∞); for Tmax: read-out: Tmax; for Cmax: intragastric JHGs
Experimental: as §1, §2, §3
Accucore C18 (100 mm × 2.1 mm, 2.6 μm) column at 25 °C, the mobile phase was methanol (A)-0.1% formic acid aqueous solution (B). The gradient elution program was 0–4 min (65% B-40% B), 4–5 min (40% B-40% B), 5–6 min (40% B-28% B), and 6–7 min (28% B-19% B), 7–7.5 min (19% B-10% B), 7.5–11 min (10% B-0% B), the flow rate was 0.2 mL/min, and the injection volume was 5 μL.
The ion source was an electrospray ionization source (ESI). Nitrogen acted as a carrier gas. The sheath gas pressure was 35 Arb. The auxiliary gas pressure was 7 Arb. The spray voltage was 3.50 kv(+), 2.50 kv(-). The ion transport tube temperature was regulated at 300 °C. Gasification temperature was 275 °C. The resolution was 50,000. The scanning mode was set as SIM mode. The optimized parameters obtained are in Table 5.
Under the established Orbitrap Fusion MS method, the pharmacokinetics of JHG in rats were studied to investigate the dynamic changes of the active components in rats. The pharmacokinetic parameters of each component in each dosing group were calculated by […] model analysis using Kinetica 5.1 (Innaphase, Waltham, MA, USA) pharmacokinetic analysis software. The pharmacotemporal curves were plotted by the plotting software. SPSS 19.0 (IBM, Armonk, NY, USA) was used to analyze all the parameters. Independent sample tests were performed after natural logarithmic transformation for AUC0–t, Cmax. The nonparametric Mann–Whitney test was applied for Tmax, t½, and MRT0–t. p < 0.05 was considered statistically significant.

[3] = 5.7 g/kg/day, JHGs low dose 5.70 g/kg/d
[4] = 11.41 g/kg/day, JHGs medium dose 11.41 g/kg/d
[5] = 22.81 g/kg/day, JHGs high dose 22.81 g/kg/d

pharmacokinetic process (versus dosage) [1]: linear pharmacokinetic process
Tmax, PF model group compared with the control group ([1]; PF model vs control rats): increased about three times
Clearances ([2]; JHGs high dose 22.81 g/kg/d): 18.7 ± 3.83 mL/min/kg
Vss ([2]; JHGs high dose 22.81 g/kg/d): 9.42 ± 1.03 L
Clearances ([2]; JHGs low dose 5.70 g/kg/d): 15.2 ± 3 mL/min/kg
Vss ([2]; JHGs low dose 5.70 g/kg/d): 8.97 ± 2.22 L
Clearances ([2]; JHGs medium dose 11.41 g/kg/d): 15.7 ± 1.7 mL/min/kg
Vss ([2]; JHGs medium dose 11.41 g/kg/d): 9.67 ± 3.39 L
pharmacokinetic process (Cmax and AUCs versus dosage) [2]: linear pharmacokinetic process
AUC(0-inf) [2, 3]: 35.8 ± 5.5 ng·h/mL
AUC(0-t) [2, 3]: 32.2 ± 4.75 ng·h/mL
half-life [2, 3]: 6.86 ± 0.48 h
MRT last [2, 3]: 7.15 ± 0.14 h
MRT inf [2, 3]: 9.81 ± 0.84 h
Tmax [2, 3]: 1 h
Cmax ([2]; 5.7 g/kg/day, low dose 5.70 g/kg/d, n=6 (1st of 3 stacked values)): 5.67 ± 1 ng/mL
AUC(0-inf) [2, 4]: 61.5 ± 8.17 ng·h/mL
AUC(0-t) [2, 4]: 54.9 ± 7.53 ng·h/mL
half-life [2, 4]: 8.24 ± 4.54 h
MRT last [2, 4]: 7.03 ± 0.29 h
MRT inf [2, 4]: 10.4 ± 4.06 h
Tmax [2, 4]: 2 h
Cmax ([2]; 11.41 g/kg/day, medium dose 11.41 g/kg/d, n=6 (2nd of 3 stacked values)): 9.31 ± 1.05 ng/mL
AUC(0-inf) [2, 5]: 104 ± 22.4 ng·h/mL
AUC(0-t) [2, 5]: 96.4 ± 18.1 ng·h/mL
half-life [2, 5]: 6.1 ± 0.77 h
MRT last [2, 5]: 6.64 ± 0.33 h
MRT inf [2, 5]: 8.58 ± 0.98 h
Tmax [2, 5]: 3 h
Cmax ([2]; 22.81 g/kg/day, high dose 22.81 g/kg/d, n=6 (3rd of 3 stacked values)): 18.4 ± 1.98 ng/mL
Structure (SMILES): C[C@@H]1O[C@@H](O[C@@H]2[C@@H](O)[C@H](OCCc3ccc(O)c(O)c3)O[C@H](COC(=O)/C=C/c3ccc(O)c(O)c3)[C@H]2O)[C@H](O)[C@H](O)[C@H]1O [Isoacteoside]

Tmax, PF model group compared with the control group ([1]; PF model vs control rats): decreased significantly
Structure (SMILES): COc1ccc([C@@H]2CC(=O)c3c(O)cc(O[C@@H]4O[C@H](CO[C@@H]5O[C@@H](C)[C@H](O)[C@@H](O)[C@H]5O)[C@@H](O)[C@H](O)[C@H]4O)cc3O2)cc1O [Hesperidin]

pharmacokinetic process (versus dosage) [1]: linear pharmacokinetic process
Cmax, PF model group compared with the control group ([1]; PF model vs control rats, medium dose selected for comparison): significantly decreased
AUCs, PF model group compared with the control group ([1]; PF model vs control rats, p < 0.05): significantly decreased
pharmacokinetic process (Cmax and AUCs versus dosage) [2]: linear pharmacokinetic process
Structure (SMILES): CC(C)=CCC[C@](C)(O[C@@H]1O[C@H](CO[C@@H]2O[C@H](CO)[C@@H](O)[C@H](O)[C@H]2O)[C@@H](O)[C@H](O)[C@H]1O)[C@H]1CC[C@]2(C)[C@@H]1[C@H](O)C[C@@H]1[C@@]3(C)CC[C@H](O[C@@H]4O[C@H](CO)[C@@H](O)[C@H](O)[C@H]4O[C@@H]4O[C@H](CO)[C@@H](O)[C@H](O)[C@H]4O)C(C)(C)[C@@H]3CC[C@]12C [Ginsenoside Rb1]
